Four molecules from EP4745135A1 (Gluetacs Therapeutics (Shanghai) Co., Ltd., priority 2023, dated 2025) can be followed below.

Assay [1] concerns the target T1, human Cereblon WT GST-tagged protein (Homo sapiens, UniProt Q96SW2).
T1 construct: purchased CISBIO 64BDCRBNPEH
The experiment in a line: CRBN-binding affinity, HTRF (CEREBLON BINDING kit). Particulars: for inhibition at 0.5 µM: read-out: Inhibition Rate at 0.5 µM (%); for inhibition at 2 µM: read-out: Inhibition Rate at 2 µM (%).

The target in the next assay is T2, IKZF1 (Homo sapiens, UniProt Q13422+Q96SW2).
T2 construct: effects of the compounds of the present disclosure on the expression of target proteins in cells; endogenous in cells; host or cells: human PBMCs (Milecell Biotechnologies)
T2 sequence (Q13422 whole entry): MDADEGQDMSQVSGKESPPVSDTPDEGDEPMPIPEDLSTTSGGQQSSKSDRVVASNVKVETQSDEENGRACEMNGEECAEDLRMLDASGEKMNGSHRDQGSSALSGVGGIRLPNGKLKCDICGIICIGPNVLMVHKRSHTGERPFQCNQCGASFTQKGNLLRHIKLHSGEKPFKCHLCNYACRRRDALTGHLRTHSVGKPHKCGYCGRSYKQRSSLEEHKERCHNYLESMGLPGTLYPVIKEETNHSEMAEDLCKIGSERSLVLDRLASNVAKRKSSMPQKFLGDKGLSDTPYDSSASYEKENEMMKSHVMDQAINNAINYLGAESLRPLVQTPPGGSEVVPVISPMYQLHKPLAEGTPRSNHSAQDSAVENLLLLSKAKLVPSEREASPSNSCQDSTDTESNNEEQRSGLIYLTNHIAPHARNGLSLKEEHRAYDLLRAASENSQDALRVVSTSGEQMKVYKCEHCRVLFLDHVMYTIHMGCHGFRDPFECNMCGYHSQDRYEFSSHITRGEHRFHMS
T2 sequence (Q96SW2 whole entry): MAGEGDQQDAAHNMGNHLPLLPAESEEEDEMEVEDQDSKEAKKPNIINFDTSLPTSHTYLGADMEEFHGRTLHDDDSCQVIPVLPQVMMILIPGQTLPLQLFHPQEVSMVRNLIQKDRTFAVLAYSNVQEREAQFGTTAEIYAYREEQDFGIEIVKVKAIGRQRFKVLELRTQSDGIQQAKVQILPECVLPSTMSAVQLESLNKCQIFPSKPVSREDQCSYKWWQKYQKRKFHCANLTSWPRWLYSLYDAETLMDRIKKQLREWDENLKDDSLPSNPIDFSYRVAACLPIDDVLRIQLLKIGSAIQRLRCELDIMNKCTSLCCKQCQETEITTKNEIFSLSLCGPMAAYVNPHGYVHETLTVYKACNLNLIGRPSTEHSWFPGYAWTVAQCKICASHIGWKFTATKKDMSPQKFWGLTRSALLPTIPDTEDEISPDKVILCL
T2 sequence (Q16531 whole entry partner): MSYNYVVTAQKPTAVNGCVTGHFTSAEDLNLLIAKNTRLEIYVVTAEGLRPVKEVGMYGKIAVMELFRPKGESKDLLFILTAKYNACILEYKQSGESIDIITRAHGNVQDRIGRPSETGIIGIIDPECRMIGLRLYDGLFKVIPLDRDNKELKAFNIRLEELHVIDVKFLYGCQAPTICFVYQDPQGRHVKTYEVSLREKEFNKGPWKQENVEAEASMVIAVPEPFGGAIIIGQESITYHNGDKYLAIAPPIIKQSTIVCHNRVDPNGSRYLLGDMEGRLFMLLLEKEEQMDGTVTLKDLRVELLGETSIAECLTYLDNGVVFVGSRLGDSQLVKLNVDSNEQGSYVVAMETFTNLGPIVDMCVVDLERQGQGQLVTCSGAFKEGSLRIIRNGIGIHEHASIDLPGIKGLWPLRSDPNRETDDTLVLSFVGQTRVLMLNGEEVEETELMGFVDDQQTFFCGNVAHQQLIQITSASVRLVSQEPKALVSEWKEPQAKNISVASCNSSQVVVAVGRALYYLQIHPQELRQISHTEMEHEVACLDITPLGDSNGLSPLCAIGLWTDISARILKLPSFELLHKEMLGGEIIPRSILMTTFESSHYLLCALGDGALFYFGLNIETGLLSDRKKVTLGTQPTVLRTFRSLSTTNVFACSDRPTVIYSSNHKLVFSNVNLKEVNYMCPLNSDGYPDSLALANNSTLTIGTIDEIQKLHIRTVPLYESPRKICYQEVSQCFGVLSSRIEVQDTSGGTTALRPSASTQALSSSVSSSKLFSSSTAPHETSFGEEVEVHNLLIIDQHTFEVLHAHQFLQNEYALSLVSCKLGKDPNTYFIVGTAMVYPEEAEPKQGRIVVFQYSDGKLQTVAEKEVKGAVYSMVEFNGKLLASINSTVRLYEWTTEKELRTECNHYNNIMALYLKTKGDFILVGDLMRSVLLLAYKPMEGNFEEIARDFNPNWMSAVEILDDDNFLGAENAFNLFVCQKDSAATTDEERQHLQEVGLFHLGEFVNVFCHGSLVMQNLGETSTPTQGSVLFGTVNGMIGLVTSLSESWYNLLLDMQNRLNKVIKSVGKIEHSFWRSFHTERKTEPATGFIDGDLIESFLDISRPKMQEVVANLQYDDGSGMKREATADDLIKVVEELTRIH
The assay can be described thus: Western blot, degradation of substrate protein in hPBMCs. It counts as cell-based.

The target in a further assay is T3, IKZF3 (Homo sapiens, UniProt Q96SW2+Q9UKT9).
T3 construct: effects of the compounds of the present disclosure on the expression of target proteins in cells; endogenous in cells; host or cells: human PBMCs (Milecell Biotechnologies)
T3 sequence (Q9UKT9 whole entry): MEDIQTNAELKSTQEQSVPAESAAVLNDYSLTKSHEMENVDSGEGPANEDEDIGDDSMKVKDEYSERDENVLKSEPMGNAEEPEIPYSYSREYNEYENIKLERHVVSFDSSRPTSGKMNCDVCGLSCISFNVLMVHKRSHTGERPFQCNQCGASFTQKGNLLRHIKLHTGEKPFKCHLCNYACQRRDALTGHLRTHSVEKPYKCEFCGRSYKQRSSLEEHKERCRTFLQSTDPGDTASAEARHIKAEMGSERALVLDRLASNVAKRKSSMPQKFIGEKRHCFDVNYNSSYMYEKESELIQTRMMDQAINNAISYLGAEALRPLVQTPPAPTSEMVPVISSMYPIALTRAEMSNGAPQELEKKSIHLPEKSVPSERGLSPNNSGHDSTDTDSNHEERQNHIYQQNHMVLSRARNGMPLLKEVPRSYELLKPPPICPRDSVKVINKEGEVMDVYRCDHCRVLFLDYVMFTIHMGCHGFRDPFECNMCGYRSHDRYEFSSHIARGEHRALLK
T3 sequence (Q96SW2 whole entry): as the sequence (Q96SW2 whole entry) above
T3 sequence (Q16531 whole entry partner): as the sequence (Q16531 whole entry partner) above
Described as above. The class given is cell-based.

A further assay deals with T4, IKZF2 (Homo sapiens, UniProt Q96SW2+Q9UKS7).
T4 construct: effects of the compounds of the present disclosure on the expression of target proteins in cells; endogenous in cells; host or cells: human PBMCs (Milecell Biotechnologies)
T4 sequence (Q9UKS7 whole entry): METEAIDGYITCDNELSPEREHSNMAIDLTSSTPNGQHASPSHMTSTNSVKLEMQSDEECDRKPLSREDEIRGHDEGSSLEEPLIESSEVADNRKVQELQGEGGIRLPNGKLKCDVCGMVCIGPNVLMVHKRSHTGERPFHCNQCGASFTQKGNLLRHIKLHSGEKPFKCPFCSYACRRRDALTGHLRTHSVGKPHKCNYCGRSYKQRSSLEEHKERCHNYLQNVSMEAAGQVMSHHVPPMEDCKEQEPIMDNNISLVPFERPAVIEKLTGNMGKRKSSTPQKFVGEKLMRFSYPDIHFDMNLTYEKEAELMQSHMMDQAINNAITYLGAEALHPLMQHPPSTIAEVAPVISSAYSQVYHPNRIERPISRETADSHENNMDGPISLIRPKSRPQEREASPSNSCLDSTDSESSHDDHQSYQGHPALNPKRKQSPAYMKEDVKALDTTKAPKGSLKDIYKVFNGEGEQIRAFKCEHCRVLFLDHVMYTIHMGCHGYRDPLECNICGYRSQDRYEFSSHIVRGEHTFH
T4 sequence (Q96SW2 whole entry): as the sequence (Q96SW2 whole entry) above
T4 sequence (Q16531 whole entry partner): as the sequence (Q16531 whole entry partner) above
The assay is described as above. The class given is cell-based.

The target in another assay is T5, WEE1 (Homo sapiens, UniProt P30291+Q96SW2).
T5 construct: effects of the compounds of the present disclosure on the expression of target proteins in cells; endogenous in cells; host or cells: human PBMCs (Milecell Biotechnologies)
T5 sequence (P30291 whole entry): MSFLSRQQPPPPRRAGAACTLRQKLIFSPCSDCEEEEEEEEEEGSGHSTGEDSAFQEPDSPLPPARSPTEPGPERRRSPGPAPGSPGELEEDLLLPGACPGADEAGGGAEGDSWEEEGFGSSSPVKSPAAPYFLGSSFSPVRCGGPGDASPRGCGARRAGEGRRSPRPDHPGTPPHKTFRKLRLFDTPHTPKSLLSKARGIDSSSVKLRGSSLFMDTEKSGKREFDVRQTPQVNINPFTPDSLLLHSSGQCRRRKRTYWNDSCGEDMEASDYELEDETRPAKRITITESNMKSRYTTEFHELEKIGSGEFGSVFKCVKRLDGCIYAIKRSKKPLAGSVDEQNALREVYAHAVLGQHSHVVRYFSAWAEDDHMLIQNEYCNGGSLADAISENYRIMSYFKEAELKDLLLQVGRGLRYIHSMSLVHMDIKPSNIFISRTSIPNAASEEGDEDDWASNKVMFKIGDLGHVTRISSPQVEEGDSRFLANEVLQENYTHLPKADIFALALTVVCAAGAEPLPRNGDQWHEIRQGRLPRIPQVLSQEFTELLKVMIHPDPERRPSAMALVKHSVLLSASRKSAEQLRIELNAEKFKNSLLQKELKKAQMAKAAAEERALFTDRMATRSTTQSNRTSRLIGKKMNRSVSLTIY
T5 sequence (Q96SW2 whole entry): as the sequence (Q96SW2 whole entry) above
T5 sequence (Q16531 whole entry partner): as the sequence (Q16531 whole entry partner) above
The description is as above. The class given is cell-based.

The target in the next assay is T6, CK1α (Homo sapiens, UniProt P48729+Q96SW2).
T6 construct: effects of the compounds of the present disclosure on the expression of target proteins in cells; endogenous in cells; host or cells: human PBMCs (Milecell Biotechnologies)
T6 sequence (P48729 whole entry): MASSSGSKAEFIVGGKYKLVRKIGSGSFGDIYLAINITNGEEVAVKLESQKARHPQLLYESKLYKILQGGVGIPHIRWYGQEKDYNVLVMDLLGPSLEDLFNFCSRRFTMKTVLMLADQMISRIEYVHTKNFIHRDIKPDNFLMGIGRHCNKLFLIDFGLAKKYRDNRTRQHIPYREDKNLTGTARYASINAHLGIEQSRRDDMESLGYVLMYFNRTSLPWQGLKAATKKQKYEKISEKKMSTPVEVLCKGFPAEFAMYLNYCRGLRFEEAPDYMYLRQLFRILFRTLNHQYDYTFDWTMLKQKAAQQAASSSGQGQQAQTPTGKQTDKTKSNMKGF
T6 sequence (Q96SW2 whole entry): as the sequence (Q96SW2 whole entry) above
T6 sequence (Q16531 whole entry partner): as the sequence (Q16531 whole entry partner) above
The assay is described as above. The class given is cell-based.

For the next assay, the system named is GSPT1. The description is as above. It counts as cell-based, Human.
Where [2] appears, read: 24 hours treatment, compounds at 50 nM and 500 nM (concentration behind the class not stated).
The mark [3] stands for this setting: Western blot, 24 hours of compound treatment, compounds tested at 50 nM and 500 nM (concentration for the table not stated).

T1 sequence (Q96SW2 whole entry): as the sequence (Q96SW2 whole entry) above

Turning to `O=C1CCC(N2Cc3c(CN4CCC(c5cccc6c(F)cccc56)CC4)cccc3C2=S)C(=O)N1` (centres unmarked) [GT-08855, 3-(4-((4-(5-fluoronaphthalen-1-yl)piperidin-1-yl)methyl)-1-thioxoisoindolin-2-yl)piperidine-2,6-dione], in assay [1], the inhibition at 0.5 µM was in the range of 30 to 40% and the inhibition at 2 µM is 60 to 80%. In addition, the “IKZF 1 substrate protein remaining %” value on IKZF1 (setting [2]) is reported as “B (80%< substrate protein remaining %≤ 100%)”. At IKZF3 (setting [2]), the “IKZF3 substrate protein remaining %” value is reported as “B (80%< substrate protein remaining %≤ 100%)”. In addition, at IKZF2 (setting [2]), the “IKZF2 substrate protein remaining %” value is on record as “B (80%< substrate protein remaining %≤ 100%)”. Besides, the “Wee1 substrate protein remaining %” value at WEE1 (setting [2]) is “A (0% ≤ substrate protein remaining % ≤ 80%)”. Besides, the “CK1α substrate protein remaining %” value at CK1α (setting [2]) is recorded as “B (80%< substrate protein remaining %≤ 100%)”. Also, the “GSPT1 substrate protein remaining %” value in the assay with GSPT1 (setting [2]) was “A (0% ≤ substrate protein remaining % ≤ 80%)”.

`O=C1CCC(N2Cc3c(CN4CCC(c5ccc(Br)cc5)CC4)cccc3C2=S)C(=O)N1` (centres unmarked) [GT-08592, 3-(4-((4-(4-bromophenyl)piperidin-1-yl)methyl)-1-thioxoisoindolin-2-yl)piperidine-2,6-dione]: in assay [1], the inhibition at 0.5 µM fell in the range of 40 to 53% and the inhibition at 2 µM is 60 to 80%. Moreover, the “IKZF 1 substrate protein remaining %” value at IKZF1 (setting [3]) was “B (80%< substrate protein remaining %≤ 100%)”. The “IKZF3 substrate protein remaining %” value at IKZF3 (setting [3]) is “B (80%< substrate protein remaining %≤ 100%)”. For the same molecule, the “IKZF2 substrate protein remaining %” value on IKZF2 (setting [3]) was “B (80%< substrate protein remaining %≤ 100%)”. Also, the “Wee1 substrate protein remaining %” value at WEE1 (setting [3]) is “A (0% ≤ substrate protein remaining % ≤ 80%)”. Also, the “CK1α substrate protein remaining %” value on CK1α (setting [3]) is reported as “B (80%< substrate protein remaining %≤ 100%)”. Moreover, the “GSPT1 substrate protein remaining %” value in the assay with GSPT1 (setting [3]) is recorded as “B (80%< substrate protein remaining %≤ 100%)”.

`O=C1CCC(N2Cc3c(CN4CCN(c5ccc(F)cn5)CC4)cccc3C2=S)C(=O)N1` (centres unmarked) [GT-08699, 3-(4-((4-(5-fluoropyridin-2-yl)piperazin-1-yl)methyl)-1-thioxoisoindolin-2-yl)piperidine-2,6-dione]: in assay [1], the inhibition at 0.5 µM lay in the range of 53 to 60% and the inhibition at 2 µM was 80 to 100%. Moreover, the “IKZF 1 substrate protein remaining %” value on IKZF1 (setting [3]) was “B (80%< substrate protein remaining %≤ 100%)”. In addition, the “IKZF3 substrate protein remaining %” value on IKZF3 (setting [3]) is on record as “B (80%< substrate protein remaining %≤ 100%)”. Further, the “IKZF2 substrate protein remaining %” value on IKZF2 (setting [3]) is “B (80%< substrate protein remaining %≤ 100%)”. For the same molecule, at WEE1 (setting [3]), the “Wee1 substrate protein remaining %” value was “A (0% ≤ substrate protein remaining % ≤ 80%)”. The “CK1α substrate protein remaining %” value at CK1α (setting [3]) is “B (80%< substrate protein remaining %≤ 100%)”. Also, the “GSPT1 substrate protein remaining %” value in the assay on GSPT1 (setting [3]) is “B (80%< substrate protein remaining %≤ 100%)”.

With `O=C1CCC(N2Cc3c(CN4CCN(c5nccc(Cl)c5F)CC4)cccc3C2=S)C(=O)N1` (centres unmarked) [GT-08803, 3-(4-((4-(4-chloro-3-fluoropyridin-2-yl)piperazin-1-yl)methyl)-1-thioxoisoindolin-2-yl)piperidine-2,6-dione], in assay [1], the inhibition at 0.5 µM is 60 to 80% and the inhibition at 2 µM was 80 to 100%. Further, the “IKZF 1 substrate protein remaining %” value on IKZF1 (setting [3]) is on record as “B (80%< substrate protein remaining %≤ 100%)”. For the same molecule, the “IKZF3 substrate protein remaining %” value on IKZF3 (setting [3]) is on record as “B (80%< substrate protein remaining %≤ 100%)”. In addition, the “IKZF2 substrate protein remaining %” value on IKZF2 (setting [3]) is on record as “B (80%< substrate protein remaining %≤ 100%)”. Further, on WEE1 (setting [3]), the “Wee1 substrate protein remaining %” value is listed as “A (0% ≤ substrate protein remaining % ≤ 80%)”. Further, the “CK1α substrate protein remaining %” value at CK1α (setting [3]) was “B (80%< substrate protein remaining %≤ 100%)”. The “GSPT1 substrate protein remaining %” value with GSPT1 (setting [3]) is recorded as “B (80%< substrate protein remaining %≤ 100%)”.
